Assay results: ChEMBL document CHEMBL4138232, “O2-(2,4-dinitrophenyl)diazeniumdiolates derivatives: Design, synthesis, cytotoxic evaluation and reversing MDR in MCF-7/ADR cells” (Eur J Med Chem, 2018)

Legend:
MCF-10A = assay: Antiproliferative activity against human MCF10A cells after 48 hrs by MTT assay relative to control; assay type: cell-based
U2OS = assay: Antiproliferative activity against human U2OS cells after 48 hrs by MTT assay relative to control; assay type: functional, cell-based
MCF7 = assay: Cytotoxicity against ADR-sensitive human MCF7 cells assessed as inhibition of cell viability after 48 hrs by MTT assay; assay type: cell-based; conditions: MCF7, 48 h
Homo sapiens = species on record: Homo sapiens; assay: Inhibition of MDR in human MCF7/ADR cells assessed as potentiation of adriamycin-induced antiproliferative activity by measuring fold reduction in adriamycin IC50 at 10 uM after 48 hrs by MTT assay; assay type: cell-based
HCT-116 [1] = assay: Cytotoxicity against human HCT116 cells overexpressing GST-Pi assessed as inhibition of cell viability at 10 uM after 48 hrs by MTT assay relative to control; assay type: functional; conditions: HCT-116, 48 h
[2] = Selectivity ratio of IC50 for human HCT116 cells to IC50 for human MDA-MB-231 cells; assay type: functional
HCT-116 [3] = assay: Antiproliferative activity against human HCT116 cells after 48 hrs by MTT assay relative to control; assay type: functional, cell-based; conditions: HCT-116, 48 h
[4] = Selectivity ratio of IC50 for human MCF10A cells to IC50 for human MDA-MB-231 cells; assay type: toxicity; conditions: MCF10A cells versus MDA-MB-231 cells, read-out: Ratio IC50
A549 = assay: Antiproliferative activity against human A549 cells after 48 hrs by MTT assay relative to control; assay type: functional, cell-based; conditions: A549, 48 h
[5] = Cytotoxicity against ADR-sensitive human MCF7 cells assessed as inhibition of cell viability at 10 uM after 48 hrs by MTT assay relative to control; assay type: cell-based; conditions: read-out: INH
MDA-MB-231 = assay: Antiproliferative activity against human MDA-MB-231 cells after 48 hrs by MTT assay relative to control; assay type: functional, cell-based; conditions: MDA-MB-231, 48 h
[6] = molecular target: T1, Glutathione S-transferase P (Homo sapiens, UniProt P09211); assay: Prodrug activation in human HCT116 cells assessed as GST-Pi-mediated NO release at 5 uM by nitrate reductase assay; assay type: cell-based
T1 sequence (P09211 whole entry): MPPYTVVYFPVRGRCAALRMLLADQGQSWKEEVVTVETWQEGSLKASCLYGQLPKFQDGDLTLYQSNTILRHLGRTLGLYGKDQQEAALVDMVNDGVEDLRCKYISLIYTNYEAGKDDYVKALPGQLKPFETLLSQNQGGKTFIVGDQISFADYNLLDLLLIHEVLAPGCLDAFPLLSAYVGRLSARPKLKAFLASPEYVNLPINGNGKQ

[7] = Selectivity ratio of IC50 for human U2OS cells to IC50 for human MDA-MB-231 cells; assay type: functional
[8] = Selectivity ratio of IC50 for human A549 cells to IC50 for human MDA-MB-231 cells; assay type: functional
[9] = molecular target: T1, Glutathione S-transferase P; assay: Prodrug activation in human HCT116 cells assessed as GST-Pi-mediated NO release at 5 uM after 24 hrs in presence of NO scavenger carboxy-PTIO by nitrate reductase assay; assay type: cell-based
[10] = molecular target: T1, Glutathione S-transferase P; assay: Prodrug activation in human HCT116 cells assessed as GST-Pi-mediated NO release at 5 uM after 24 hrs in presence of GST-Pi inhibitor etacrynic acid by nitrate reductase assay; assay type: cell-based
[11] = molecular target: T1, Glutathione S-transferase P; assay: Prodrug activation in human HCT116 cells assessed as GST-Pi-mediated NO release at 5 uM after 24 hrs by nitrate reductase assay; assay type: cell-based
HCT-116 [12] = assay: Growth inhibition of human HCT116 cells at 5 uM after 24 hrs by MTT assay relative to control; assay type: functional; conditions: HCT-116, 24 h, read-out: GI
[13] = Glutathione reactivity in pH 7.4 PBS buffer assessed as parent compound remaining at 0.1 mM after 1 hr in presence of 2 mM GSH by HPLC analysis; assay type: physicochemical; conditions: PBS buffer with 2 mM glutathione (GSH), read-out: Stability
HCT-116 [14] = assay: Growth inhibition of human HCT116 cells at 5 uM after 24 hrs in presence of NO scavenger carboxy-PTIO by MTT assay relative to control; assay type: functional; conditions: HCT-116, 24 h, read-out: GI
HCT-116 [15] = assay: Growth inhibition of human HCT116 cells at 5 uM after 24 hrs in presence of GST-Pi inhibitor etacrynic acid by MTT assay relative to control; assay type: functional; conditions: HCT-116, 24 h, read-out: GI

SMILES | IC50 (MCF-10A) | IC50 (U2OS) | IC50 (MCF7) | fold change (FC) (Homo sapiens) | inhibition at 10 µM (HCT-116 [1]) | Ratio IC50 [2] | IC50 (HCT-116 [3]) | selectivity ratio [4] | IC50 (A549) | cytotoxicity at 48 h, 10 µM [5] | IC50 (MDA-MB-231) | Drug metabolism [6] | Ratio IC50 [7] | Ratio IC50 [8] | Drug metabolism [9] | Drug metabolism [10] | Drug metabolism [11] | other results
COc1ccc(C2CC(c3cccc(Oc4cc(O/N=[N+](\[O-])N5CCOCC5)c([N+](=O)[O-])cc4[N+](=O)[O-])c3)=NN2C(C)=O)cc1 (centres undefined) | 12.9 µM | 3.69 µM | 31.9 µM | 56.6 | 79.9% | 2.6 | 5.58 µM | 6.1 | 2.86 µM | 21.2% | 2.11 µM | Dose-dependent effect | 1.7 | 1.3 |  |  |  | 
CC(=O)N1N=C(c2cccc(Oc3cc(O/N=[N+](\[O-])N4CCOCC4)c([N+](=O)[O-])cc3[N+](=O)[O-])c2)CC1c1ccc(C)cc1 (centres undefined) | 11.9 µM | 3.86 µM | 21.6 µM | 49.7 | 77.8% | 1.1 | 4.44 µM | 3.1 | 1.87 µM | 20.2% | 3.85 µM | Dose-dependent effect | 1 | 0.5 | Metabolite_Notdetected | Metabolite_Notdetected |  | 
COc1ccc(/C=C/C(=O)c2cccc(Oc3cc(O/N=[N+](\[O-])N4CCOCC4)c([N+](=O)[O-])cc3[N+](=O)[O-])c2)cc1OC | 62.1 µM | 5.77 µM | 28.3 µM | 66.3 | 75.6% | 0.7 | 4.59 µM | 10.2 | 5.99 µM | 18% | 6.1 µM |  | 0.9 | 1 | Metabolite_Notdetected | Metabolite_Notdetected | Metabolite_Detected | 
COc1cc(C2CC(c3cccc(Oc4cc(O/N=[N+](\[O-])N5CCOCC5)c([N+](=O)[O-])cc4[N+](=O)[O-])c3)=NN2C(C)=O)cc(OC)c1OC (centres undefined) | 59.4 µM | 6.13 µM | 44.3 µM | 1.53 | 76.2% | 6.5 | 6.46 µM | 41.2 | 6.11 µM | 13.3% | 1.44 µM | Dose-dependent effect | 4.2 | 4.2 |  |  |  | 
COc1cc(C2CC(c3cccc(Oc4cc(O/N=[N+](\[O-])N5CCCCC5)c([N+](=O)[O-])cc4[N+](=O)[O-])c3)=NN2C(C)=O)cc(OC)c1OC (centres undefined) | 10.5 µM | 7.64 µM | 17.7 µM | 75.3 | 80.8% | 1.1 | 1.06 µM | 11.2 | 1.15 µM | 26.4% | 0.94 µM |  | 8.1 | 1.2 | Metabolite_Notdetected | Metabolite_Notdetected | Metabolite_Detected | inhibition of growth at 5 µM (HCT-116 [12]): 74.9%; remaining at 1 h, 100 µM [13]: 80%; inhibition of growth at 5 µM (HCT-116 [14]): 7.1%
CCCCOc1ccc(C2CC(c3cccc(Oc4cc(O/N=[N+](\[O-])N5CCOCC5)c([N+](=O)[O-])cc4[N+](=O)[O-])c3)=NN2C(C)=O)cc1OC (centres undefined) | 15.2 µM | 2.19 µM | 19.2 µM | 63 | 75.7% | 0.4 | 1.86 µM | 3.4 | 1.46 µM | 23.6% | 4.4 µM | Dose-dependent effect | 0.5 | 0.3 | Metabolite_Notdetected | Metabolite_Notdetected | Metabolite_Detected | 
CC(=O)N1N=C(c2cccc(Oc3cc(O/N=[N+](\[O-])N4CCCCC4)c([N+](=O)[O-])cc3[N+](=O)[O-])c2)CC1c1ccc(C)cc1 (centres undefined) | 70.9 µM | 9.43 µM | 22.8 µM | 18 | 75.9% | 0.3 | 1.3 µM | 15.5 | 7.31 µM | 5.16% | 4.57 µM |  | 2.1 | 1.6 | Metabolite_Notdetected | Metabolite_Notdetected | Metabolite_Detected | 
COc1ccc(C2CC(c3cccc(Oc4cc(O/N=[N+](\[O-])N5CCCCC5)c([N+](=O)[O-])cc4[N+](=O)[O-])c3)=NN2C(C)=O)cc1 (centres undefined) | 46.9 µM | 7.49 µM | 27.6 µM | 61.9 | 80.4% | 0.7 | 4.14 µM | 8.2 | 4.7 µM | 15.1% | 5.68 µM |  | 1.7 | 1.5 | Metabolite_Notdetected | Metabolite_Notdetected |  | inhibition of growth at 5 µM (HCT-116 [12]): 67.9%; inhibition of growth at 5 µM (HCT-116 [15]): 14.8%
CC(=O)N1N=C(c2cccc(Oc3cc(O/N=[N+](\[O-])N4CCOCC4)c([N+](=O)[O-])cc3[N+](=O)[O-])c2)CC1c1ccc(N(C)C)cc1 (centres undefined) | 16.4 µM | 2.46 µM | 22 µM | 33.4 | 78.3% | 0.9 | 2.7 µM | 5.6 | 1.97 µM | 21.9% | 2.9 µM | Dose-dependent effect | 0.8 | 0.7 | Metabolite_Notdetected | Metabolite_Notdetected |  | 
CC(=O)N1N=C(c2cccc(Oc3cc(O/N=[N+](\[O-])N4CCCCC4)c([N+](=O)[O-])cc3[N+](=O)[O-])c2)CC1c1ccc(N(C)C)cc1 (centres undefined) | 95.3 µM | 6.3 µM | 20.2 µM | 26.6 | 81.3% | 0.6 | 3.43 µM | 18 | 7.66 µM | 13.4% | 5.29 µM |  | 1.2 | 1.4 | Metabolite_Notdetected | Metabolite_Notdetected | Metabolite_Detected | 
COc1ccc(C2CC(c3cccc(Oc4cc(O/N=[N+](\[O-])N5CCCCC5)c([N+](=O)[O-])cc4[N+](=O)[O-])c3)=NN2C(C)=O)cc1OC (centres undefined) | 18.7 µM | 6.74 µM | 25.2 µM | 71.7 | 80.9% | 1 | 1.43 µM | 13.6 | 1.02 µM | 17.2% | 1.37 µM |  | 4.9 | 0.7 | Metabolite_Notdetected | Metabolite_Notdetected | Metabolite_Detected | 
COc1ccc(C2CC(c3cccc(Oc4cc(O/N=[N+](\[O-])N5CCOCC5)c([N+](=O)[O-])cc4[N+](=O)[O-])c3)=NN2C(C)=O)cc1OC (centres undefined) | 10.1 µM | 2.46 µM | 22.7 µM | 14.3 | 81.2% | 1.9 | 1.27 µM | 15.3 | 1.54 µM | 13% | 0.66 µM | Dose-dependent effect | 3.7 | 2.3 | Metabolite_Notdetected | Metabolite_Notdetected | Metabolite_Detected | 
